Test results: PubChem BioAssay (NCI)
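A five-concentration, 48-hour dose response in 96-well plates underlies each endpoint, interpolated linearly between surrounding concentrations. Here, GI50 denotes the concentration required for 50% inhibition of growth. At the TGI there is no net growth.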

Assays:
Assay in all cases: NCI anticancer screen, dose series, 48 h
NCI-H226 lung = tested on: NCI-H226 lung
OVCAR-4 ovarian = tested on: OVCAR-4 ovarian
786-0 renal = tested on: 786-0 renal
MDA-MB-435 = tested on: MDA-MB-435
NCI-H460 lung = tested on: NCI-H460 lung
A549 NSCLC = tested on: A549 NSCLC
HCT-15 colon = tested on: HCT-15 colon
HOP-92 NSCLC = tested on: HOP-92 NSCLC
NCI/ADR-RES ovarian = tested on: NCI/ADR-RES ovarian
MOLT-4 leukemia = tested on: MOLT-4 leukemia

Compound	GI50 (NCI-H226 lung)	TGI (NCI-H226 lung)	GI50 (OVCAR-4 ovarian)	TGI (OVCAR-4 ovarian)	GI50 (786-0 renal)	TGI (786-0 renal)	GI50 (MDA-MB-435)	GI50 (NCI-H460 lung)	GI50 (A549 NSCLC)	TGI (A549 NSCLC)	GI50 (HCT-15 colon)	TGI (HCT-15 colon)	GI50 (HOP-92 NSCLC)	TGI (HOP-92 NSCLC)	GI50 (NCI/ADR-RES ovarian)	TGI (NCI/ADR-RES ovarian)	GI50 (MOLT-4 leukemia)	TGI (MOLT-4 leukemia)	TGI (MDA-MB-435)	TGI (NCI-H460 lung)
COc1ccc2c(c1)OC(N)=C(C#N)C2c1cc(OC)c(OC)c(OC)c1 (configuration not stated)	0.0573 µM	> 100 µM	0.0714 µM	> 100 µM	0.0538 µM	> 100 µM	0.0189 µM	0.0345 µM	0.0401 µM	> 100 µM	0.034 µM	> 100 µM	0.169 µM	> 100 µM	0.0199 µM	0.0449 µM	0.0365 µM	> 100 µM		
CC1CC2C3CCC4=CC(=O)C=CC4(C)C3(F)C(O)CC2(C)C1(O)C(=O)COP(=O)(O)O (configuration not stated)	> 500 µM	> 500 µM	> 500 µM	> 500 µM	> 500 µM	> 500 µM	> 500 µM	> 500 µM	> 500 µM	> 500 µM	> 500 µM	> 500 µM	> 500 µM	> 500 µM	> 500 µM	> 500 µM	> 500 µM	> 500 µM	> 500 µM	> 500 µM
CC(C)(C)c1cc(C(=O)Nc2ccccc2C(=O)NCCN)cc(C(C)(C)C)c1	1.96 µM	3.74 µM	1.89 µM	3.82 µM	1.75 µM	3.51 µM	1.72 µM	1.94 µM	2.11 µM	4.2 µM	1.89 µM	3.45 µM			1.93 µM	3.89 µM	2.2 µM	4.86 µM	3.24 µM	3.67 µM
COc1cccc(/C=C/C(=O)c2ccc3cc(OC)ccc3c2)c1			24.7 µM	> 50 µM	10.9 µM	19.2 µM	7.38 µM	25.2 µM	15.5 µM	49.4 µM	9.73 µM	30.8 µM	11.1 µM	41.3 µM					19 µM	> 50 µM
C/C(=N\O)c1ccc2ccc3ccccc3c2c1		85.6 µM		66.5 µM		> 100 µM				79.8 µM		> 100 µM				85.3 µM		52.9 µM	46.9 µM	> 100 µM
CN1CCN(CC(=O)N(C)c2ccc(N=C(c3ccccc3)c3c(O)[nH]c4ccc(C#N)cc34)cc2)CC1	3.19 µM	16 µM	3.03 µM	14 µM	2.3 µM	14.6 µM	1.66 µM	1.38 µM	3.13 µM	21.2 µM	3.55 µM	14.9 µM	3.36 µM	20.8 µM	17.9 µM	60.1 µM	0.601 µM	9.38 µM	4.04 µM	3.25 µM
O=C(CS(=O)(=O)c1nc2ccccc2nc1-c1ccccc1)Nc1ccc(F)cc1	85.7 µM	> 100 µM	21.6 µM	49.4 µM	> 100 µM	> 100 µM	88 µM	88.8 µM	> 100 µM	> 100 µM	39.9 µM	> 100 µM	22.3 µM	> 100 µM	33.7 µM	> 100 µM			> 100 µM	> 100 µM
